According to patent US5593678A, “Protection of teleost fish” (University of Georgia Research Foundation, priority 1994, dated 1997):
Read-outs that look alike come from different tables or passages of the source.

Experiments:
[1] = test system: NCC from stressed fish (lysis of IM-9 target cells); conditions: for Percent Specific Release (stressed fish): 100:1, control 0.9
Procedure: (§1) A ^51 Cr release assay was used to determine cytotoxicity. Target cells at 1-2×10^6 cells/ml were labeled with 100 μCi of sodium chromate (Amersham, Arlington Heights, Ill.). NCC effector cells were treated as previously described [Evans et al. (1988) supra], centrifuged (500 g), and resuspended in media and added at different E:T ratios to the labeled target cells in round-bottomed 96-well microtiter plates. This mixture was incubated (25° C.) for 4-6 hours and 100 μl of each supernatant was removed to determine radioactivity (Beckman Biogamma II Counter; Beckman Instruments, Irvine, Calif.). The results are expressed as either percentage specific release (SR)=[(test release--spontaneous release)/(total release--spontaneous release)]×100; percent inhibition=[(percentage control SR--percentage test SR)/percentage control SR]×100; and percentage increase=(percentage test SR--percentage control SR)/percentage control SR.
A common observation in fish exposed to stress, e.g., toxicants, drastic temperature changes, handling, etc., is the temporary loss of NCC activity.

IM-9 target cells = test system: IM-9 target cells
Procedure: In further studies, NCC were treated with different concentrations of protein phosphatase inhibitors for two hours and labeled IM-9 target cells were added for a four-hour microcytotoxicity assay (Table 8). […] To determine if the activating effects of the protein phosphatase inhibitors were reversible, NCC were treated for 90 minutes with NaF and vanadate and then the inhibitors were removed prior to addition of the labeled target cells.

[2] = test system: phosphotidylinositol phosphate phosphatase; conditions: cited from earlier work
[3] = test system: NCC (lysis of IM-9 target cells); conditions: for Percentage of control (NCC cytotoxic activity): 120 minutes; for effect of removal of inhibitor on NCC activation (words): 90 minutes treatment, washed, E:T 40:1
Procedure: FIG. 4. Individual and combined effects of phosphatase inhibitors on NCC cytotoxicity, NCC (7×10^5 cells) were incubated with either media (.diamond.), vanadate (Δ) (5 mM). NaF (.smallcircle.) (20 mM), or both vanadate and NaF (.quadrature.) for the indicated time periods before addition to labeled IM-9 target cells.
FIG. 5. Effects of removal of Na3 VO4 on NCC activation. NCC were harvested, incubated for three hours, washed, counted and added to duplicate tubes containing either media alone or media containing 2.5, 5 and 10 mM vanadate. Following a 90 minutes incubation time, the cells were either washed and resuspended in media (closed circles) or added directly (open circles) to wells containing ^51 chromium labeled IM-9 target cells (E:T ratio 40:1).
FIG. 6. Effects of removal of NaF on NCC activation. NCC were harvested, incubated for three hours in media, washed, counted and added to duplicate tubes containing media alone or in the presence of 5, 10 and 20 mM NaF. Following a 90 minutes treatment time, NCC were either washed (closed circles) or added directly (open circles) to wells containing labeled IM-9 target cells (E:t ratio 40:1).
FIG. 7. Effects of Na3 VO4 on NCC with different levels of cytotoxicity. NCC were harvested from anterior kidneys of fish from three different sources. The cells were incubated in media for three hours, washed, counted and added to test tubes containing either media alone or media with 2.5, 5 and 10 mM vanadate. Following a two hours incubation time, the effectors were added to wells containing labeled IM-9 cells at a 40:1 E:T ratio.
FIG. 8. Effects of NaF on NCC with different levels of cytotoxicity. NCC were harvested from anterior kidneys of fish from three different sources. The cells were incubated in media for three hours, washed, counted and added to media or media with 5, 10 and 20 mM NaF. Following a two-hour incubation, NCC were added to wells containing ^51 chromium labeled IM-9 target cells for a final E:T ratio of 40:1.
as §1
NCC were obtained as previously described [Graves et al. (1984) supra]; Evans et al. (1984) supra]. […] NCC were then washed and resuspended at 20×10^6 cells/ml, and 35 μl aliquots were added to test tubes containing 315 μl media only (media control) or media containing the indicated treatments. After 2 hr incubation, the cells were mixed with ^51 Cr-labeled IM-9 target cells and incubated for 4-6 hours ([…]). Supernatants were harvested and cytotoxicity levels were calculated as previously described.
Membrane phosphorylation is maintained through a delicate equilibrium between cellular kinase and phosphatase activities.
In further studies, NCC were treated with different concentrations of protein phosphatase inhibitors for two hours and labeled IM-9 target cells were added for a four-hour microcytotoxicity assay (Table 8).

CRC cells = assay: Lytic activity of CRC cells (rat leukemic NK cells); format: cell-based, rat (F344)
From the text: The present invention relates to the relevance of protein phosphatase inhibitors to the protection of other species and other types of natural killer cells. For example, the CRC cells (tissue cultured cells obtained from peripheral blood of leukemic F344 rats) are perhaps more interesting (e.g., another model to study the effects of vanadate on altering immunosuppressed NK function) because these are in vitro maintained rat leukemic NK cells which have spontaneously lost cytotoxicity against YAC-1 target cells. […] It is possible that the discovery of this activity of protein phosphatase inhibitors may have widespread importance for studies of mechanisms of signaling in all vertebrates. Additionally, these inhibitors may have clinical importance in circumstances of immunosuppression, immunodeficiency and other conditions of altered immune activity.

NCC = conditions: relatively high concentrations
protein phosphatase = conditions: cited from earlier work
[4] = test system: human prostate gland phosphotyrosyl protein phosphatase; conditions: cited from earlier work
calcineurin = conditions: cited from earlier work

For `[Cl-].[Li+]` [Lithium chloride, lithium chloride], the “effect on cytotoxicity, stressed fish” value [1] is given as “no effects on cytotoxicity”, the “toxicity to labeled IM-9 targets” value (IM-9 target cells) is given as “not toxic” and the “phosphotidylinositol phosphate phosphatase activity” value [2] is given as “specifically inhibited”.

In the case of `[F-].[Na+]` [Sodium fluoride, sodium fluoride], the “cytotoxicity in presence of inhibitor, normal NCC” value [3] is reported as “significant increased cytotoxicity”, the “effect on NCC cytotoxicity” value [3] is reported as “activated the cytotoxicity of NCC” and the “Percentage of control (NCC cytotoxic activity)” value (from here on “Percentage of control”) ([3]; 5 mM, E:T 25:1) is reported as 210.3%. The “Percentage of control” value ([3]; 5 mM, E:T 50:1) was 136.9%, the “Percentage of control” value ([3]; 5 mM, E:T 100:1) was 123.2% and the “Percent Specific Release” value ([3]; 5 mM, E:T 10, media 39) was 48%. For the same compound, the “Percent Specific Release” value ([3]; 5 mM, E:T 25, media 4) was 9%, the “Percent Specific Release” value ([3]; 5 mM, E:T 50, media 21) was 29% and the “Percentage of control” value ([3]; 10 mM, E:T 25:1) was 333.3%. The “Percentage of control” value ([3]; 10 mM, E:T 50:1) was 183.9%, the “Percentage of control” value ([3]; 10 mM, E:T 100:1) was 153.7% and the “Percent Specific Release” value ([3]; 10 mM, E:T 10, media 39) was 60%. For the same compound, the “Percent Specific Release” value ([3]; 10 mM, E:T 25, media 4) was 14%, the “Percent Specific Release” value ([3]; 10 mM, E:T 50, media 21) was 39% and the “Percentage of control” value ([3]; 20 mM, E:T 25:1) was 635.3%. For the same compound, the “Percentage of control” value ([3]; 20 mM, E:T 100:1) was 157.3%, the “Percent Specific Release” value ([3]; 20 mM, E:T 10, media 39) was 61% and the “Percent Specific Release” value ([3]; 20 mM, E:T 25, media 4) was 28%. The “Percent Specific Release” value ([3]; 20 mM, E:T 50, media 21) was 49%, the “effect of removal of inhibitor on NCC activation (words)” value (from here on “effect of removal of inhibitor”) ([3]; listed as NaF) was “almost completely obliterated activation” and the “effect of removal of inhibitor” value ([3]; listed as fluoride) was “almost completely obliterated NCC activation”. The “effect of removal of inhibitor” value ([3]; listed as sodium fluoride) was “lost”, the “Percent Specific Release (stressed fish)” value ([1]; NaF 5 mM) was 1.4% and the “Percent Specific Release (stressed fish)” value ([1]; NaF 10 mM) was 4.4%. For the same compound, the “Percent Specific Release (stressed fish)” value ([1]; NaF 20 mM) was 22.0%, the “toxicity to labeled IM-9 targets” value (IM-9 target cells; 20 mM) was “not toxic” and the “increase in the lytic activity of CRC cells” value (CRC cells) was 3 -fold. The “toxicity to NCC” value (NCC) was “not toxic to NCC”, the “protein phosphatase activity” value (protein phosphatase) was “vanadate but not fluoride inhibited protein phosphatase activity” and the “human prostate gland phosphotyrosyl protein phosphatase” value [4] was “fluoride, but not vanadate inhibited human prostate gland phosphotyrosyl protein phosphatase”. The “calcineurin-mediated dephosphorylation” value (calcineurin) was “fluoride, but not vanadate inhibited”.
